The test concerns Plasmodium falciparum. Description: GSK_TCMDC: Inhibition of Plasmodium falciparum 3D7 in whole erythrocytes, using parasite LDH activity as an index of growth. The format is functional, organism-based. To be noted: Plasmodium falciparum, 3D7.

In turn, `Cn1c(Nc2cc(C(C)(C)C)on2)nc2cc(Nc3ccnc(Nc4ccc(CS(C)(=O)=O)cc4)n3)ccc21` displayed an XC50 of 977 nM.

For `FC(F)(F)c1cc(Nc2ncnc3ccc(Br)cc23)ccc1OCc1ccccc1`, the XC50 came to 1080 nM.

In turn, `Oc1ccc(CCNc2nc(NCCCOc3cccc(-c4ccccc4)c3)nc(N3CCNCC3)n2)cc1` returned an XC50 of 1130 nM.

`Cc1nnsc1C(=O)Nc1ccc(-c2ccc(-c3nc4cccc(C)c4[nH]3)s2)cc1` displayed an XC50 of 594 nM.

Regarding `COC(=O)c1ccc2c(c1)nc(Nc1cccc(F)c1)n2CC(O)c1ccccn1` (centres undefined), the XC50 stood at 728 nM.

Take `CCNC[C@@H](O)[C@H](Cc1ccccc1)NC(=O)c1cc2c3c(c1)c(CC)cn3CCS(=O)(=O)N2C`: the XC50 was 810 nM.

`COc1ccc2[nH]ccc(=NN=Cc3cccc(Cl)c3)c2c1` returned an XC50 of 193 nM.

The compound `CCCOc1ccc(-c2nonc2NC(=O)c2ccccc2OC)cc1OCCC` had an XC50 of 858 nM.

Consider `O=C(/C=C/c1ccc(Cl)c(Cl)c1)NCCCCCCN1CCCN(C(=O)Nc2cc(F)cc(F)c2)CC1`, for which the XC50 stood at 708 nM.

`Cc1cccc(Nc2nc(N)c3ccccc3n2)c1`: the XC50 came out at 574 nM.

In turn, `CCCCCCCN(Cc1ccc(OC(C)(C)C(=O)OCC)cc1)C(=O)Nc1ccc(Cl)cc1OCC` came in with an XC50 of 817 nM.

For the compound `Cc1cccc(C(=O)Nc2ccnc(N3CCC(N(C)Cc4cccc(O)c4)CC3)c2)c1`, the XC50 was determined as 920 nM.

As to `O=C(Cc1ccc([N+](=O)[O-])cc1)N1CCc2cc3nccc(N4CCN5CCC[C@@H]5C4)c3cc21`, the XC50 worked out at 843 nM.

Turning to `CCOc1c(CNCCCNc2cc(=O)c3ccccc3[nH]2)cc(I)cc1C(C)(C)C`, the XC50 was found to be 703 nM.

As to `Cc1ccc(Cn2c(N3CCC(C(=O)NCc4cccs4)CC3)nc3ccccc32)cc1`, the XC50 was 748 nM.

With `CN(C)CCNC(=O)[C@H](Cc1ccccc1)NC(=O)c1ccc(O)c(-c2ccc(Cl)c(Cl)c2)c1`, the XC50 amounted to 715 nM.

`COc1ccc2ncc(F)c(CCN3CC[C@@H](CNCc4nc5c(cc4C)SCC(=O)N5)C3)c2n1` gave an XC50 of 1150 nM.

As for `Cc1ncsc1CCN1C(=O)CC2(C1=O)C(=O)N(Cc1ccccc1)c1ccc(Cl)cc12` (centres undefined), the XC50 is 984 nM.

For `O=S(=O)(c1ccc(OCc2ccc(Cl)cc2)cc1)c1cc2c(cc1OCc1ccccc1)CCN(CC1CC1)CC2`, the XC50 amounted to 1110 nM.

`CC(C)CCNC(=O)[C@@H]1[C@H]2C(=O)N(C3CCCCC3)C(=O)[C@H]2[C@H]2C=C[C@@H]3C(c4ccc(C(C)(C)C)cc4)=NO[C@@H]3N21`: the XC50 was 788 nM.

The compound `CCCc1c(C(=O)NC2CCC(CN3CCC(c4c[nH]c5ccccc45)CC3)CC2)cnn1-c1ccccc1` (centres undefined) yielded an XC50 of 1790 nM.

In turn, `CN1CCCN(Cc2cccc(-c3ccc(NC(=O)c4cccc(C#N)c4)cc3)c2)CC1` returned an XC50 of 723 nM.

The compound `COc1ccc(-c2cc(-c3nc4cc(C(=O)N5CCOCC5)ccc4[nH]3)c(=O)n(C)c2)cc1OC` registered an XC50 of 863 nM.

Compound `Cc1cc(NCCC(=O)Nc2ccccc2)nc(NCCc2ccc(F)cc2)n1` returned an XC50 of 1130 nM.

Compound `COc1ccc2nccc([C@@H](O)CN3CCC(NC(=O)c4cc5c(F)cc(F)cc5[nH]4)CC3)c2n1` showed an XC50 of 1390 nM.

As for `CCOc1ccc2c(=NN=Cc3cccc(OC)c3OC)cc(C)[nH]c2c1`, the XC50 was determined as 898 nM.

In turn, `O=C(NCCOc1ccccc1)[C@H](Cc1ccccc1)Nc1ccnc(NCC2CCCCC2)n1` registered an XC50 of 1200 nM.

Compound `CC(C)COc1ccc(Cl)cc1Cc1nc(-c2nc3cccc(CN4CCN(C)CC4)c3[nH]2)cs1` yielded an XC50 of 1330 nM.

`COc1cccc(CN2CCC(CCOC(c3ccccc3)c3ccc(Cl)cc3)CC2)c1O` (centres undefined) yielded an XC50 of 713 nM.

As for `CC(=O)C1(c2ccccc2)CCN(CCC2(c3ccc(Cl)c(Cl)c3)CN(C(=O)c3cccc(Cl)c3)CCO2)CC1` (centres undefined), the XC50 worked out at 854 nM.

In turn, `CC1(C)N=C(N)N=C(N)N1CCc1ccccc1` gave an XC50 of 47.4 nM.

`COc1ccc2nccc(NC(=O)C3CCC(NCc4cnc(SC)c([N+](=O)[O-])c4)CC3)c2n1` (centres undefined) gave an XC50 of 927 nM.

`COc1c(C2CCN(CCCCNC(=O)c3ccc(-c4ccc(C(=O)C(F)(F)F)cc4)cc3)CC2)ccc2c1CCCC2` returned an XC50 of 1100 nM.

Consider `CCOCCCn1c(=N)c(C(=O)NCc2ccc(F)cc2)cc2c(=O)n3cccc(C)c3nc21`, for which the XC50 is 526 nM.

As for `Cc1cc(NCC(c2ccccc2)c2ccccc2)nc(NCC2CCCCC2)n1`, the XC50 worked out at 507 nM.

Take `CC[C@H]1CN(CCCC(=O)c2ccccc2)CC[C@H]1CCCc1ccnc2ccc(OC(=O)c3ccccc3)cc12`: the XC50 came to 832 nM.

With `Cc1[nH]c(C)c(-c2ccc(OCc3ccc(OC(F)(F)F)cc3)nc2)c(=O)c1Cl`, the XC50 came to 70.5 nM.

In turn, `CCCCCCCCOc1ccc(N2C(N)=NC(N)=NC2(C)C)cc1` had an XC50 of 502 nM.

In turn, `COc1cc(OC)c2c(C)cc(NCCCn3ccnc3)nc2c1` returned an XC50 of 804 nM.

As to `COc1ccc2[nH]c3ccccc3c(=O)c2c1`, the XC50 stood at 1000 nM.

Turning to `O=C(NCCN1CCN(S(=O)(=O)c2ccc(OC3CCNCC3)c(Br)c2)CC1)c1ccc(Cl)c(Cl)c1`, the XC50 is 891 nM.

`Nc1nc2c(c(=O)[nH]1)CN(S(=O)(=O)c1ccc(C(=O)N[C@@H](CCC(=O)O)C(=O)O)cc1)CC2` had an XC50 of 146 nM.

`CN(c1ccccc1)c1ccnc(NC(=N)Nc2ccc(Cl)cc2)n1` returned an XC50 of 1090 nM.

As for `COc1ccccc1CCNc1nc(C)cc(N[C@@H](CC(C)C)C(=O)Nc2ccccc2)n1`, the XC50 was determined as 1280 nM.

The compound `CS(=O)(=O)c1cccc(-c2cnc(N)c3cc(-c4cccc(F)c4)ccc23)c1` returned an XC50 of 860 nM.

In turn, `Cc1ccc(CN2CCCN(Cc3cccc(NC(=O)c4cc5ccccc5s4)c3)CC2)cc1C` displayed an XC50 of 735 nM.

`O=S(=O)(c1cc(Cl)sc1Cl)N(CCC(O)(C(F)(F)F)C(F)(F)F)Cc1cccc(O)c1` registered an XC50 of 744 nM.

The compound `Nc1cc(-c2ccc(-c3cccs3)s2)nc2ccccc12` registered an XC50 of 598 nM.

`Cc1ccc(CNC(=O)[C@H](CC(C)C)Nc2cc(C)nc(Nc3ccccc3)n2)cc1`: the XC50 was found to be 1770 nM.

Regarding `Cc1cccc2nc(-c3cccc(-c4ccc(NC(=O)NC5CC5c5ccccc5)cc4)c3)[nH]c12` (centres undefined), the XC50 amounted to 719 nM.

The compound `NC(=O)C1CCN(Cc2ccc(-c3cccc(-c4nc5cc(F)ccc5[nH]4)c3)cc2)CC1` displayed an XC50 of 879 nM.

For `CC(C)N1CCN(C(CN2CCN(CCCOc3ccc(-c4ccccc4)cc3)CC2)c2ccc(F)cc2)CC1` (centres undefined), the XC50 was 678 nM.

`N#Cc1ccccc1Sc1ccccc1C(=O)Nc1ccc2ccccc2n1` showed an XC50 of 507 nM.

As to `CC[C@H]1CN2CC[C@@H]1C[C@H]2[C@H](O)c1cc(-c2ccc(Cl)c(Cl)c2)nc2ccc(O)cc12`, the XC50 came out at 262 nM.

Regarding `COc1ccc(COc2cc(NCCCN)nc3ccccc23)cc1`, the XC50 is 1280 nM.

Regarding `CCNc1cc(C(=O)N[C@@H](Cc2ccccc2)[C@H](O)CNC2CCC(F)(F)CC2)c(F)c(N2CCCCS2(=O)=O)c1`, the XC50 stood at 212 nM.

The compound `CC(=O)Nc1cccc(C(=O)Nc2cccc(-c3ccc(-c4nc5cc(C(F)(F)F)ccc5[nH]4)s3)c2)c1` displayed an XC50 of 652 nM.

`CNC(=O)C(NC(=O)c1ccccc1C(=O)OC)c1ccccc1` (centres undefined) came in with an XC50 of 556 nM.

`CC1CN(c2cnn(Cc3ccc(NC(=O)Nc4ccc(-c5ccccc5)cc4)cc3)c(=O)c2Cl)CC(C)N1` (centres undefined) registered an XC50 of 367 nM.

Turning to `COc1ccc(C2CC(c3cccs3)=NN2C(=O)c2ccccc2)cc1OC` (centres undefined), the XC50 was determined as 661 nM.

For `COc1ccc(C(=O)Nc2ccc(Nc3nc(C)cc(N(C)C)n3)cc2)c(OC)c1`, the XC50 worked out at 868 nM.

The compound `FC(F)(F)c1cccc(CNCC2CCN(CC3CCCCC3)CC2)c1` registered an XC50 of 402 nM.

In turn, `CC(=O)Nc1ccc(CN(Cc2ccc(C)cc2)Cc2cccc(Oc3ccccc3)c2)cc1` showed an XC50 of 1050 nM.

With `Cc1cccc2nc(-c3cccc(-c4ccc(CN5CCCC5CN)cc4)c3)[nH]c12` (centres undefined), the XC50 came to 760 nM.

`O=C(NCc1ccccc1)Nc1ccc(-c2ccc(-c3nc4cc(C(F)(F)F)ccc4[nH]3)cc2)cc1` gave an XC50 of 671 nM.

With `COc1ccc2ccccc2c1CNCC1CCN(CC2CCCCC2)CC1`, the XC50 was determined as 761 nM.

Turning to `CCCC(CNCc1cccc(I)c1)CNc1cc(=O)c2ccccc2[nH]1` (centres undefined), the XC50 came to 471 nM.

`O=C(Nc1ccc(-c2cccc(-c3nc4ccccc4[nH]3)c2)cc1)c1cnn2cccnc12` showed an XC50 of 597 nM.

Turning to `Cc1cccc(NC(=O)Nc2cccc(-c3ccc(-c4nc5cc(C(F)(F)F)ccc5[nH]4)cc3)c2)c1`, the XC50 worked out at 905 nM.

`CCCCNCc1ccc(-c2nc(CN(C(=O)Nc3cc([N+](=O)[O-])ccc3F)C3Cc4ccccc4C3)cs2)cc1`: the XC50 came out at 1100 nM.

Regarding `CCCC(=O)Nc1ccc(OCCN(Cc2ccccc2OC(F)(F)F)c2ccc(C(F)(F)F)c(C#N)c2)cc1`, the XC50 came out at 788 nM.

In the case of `Cc1ccc(NC(=O)NC2CCN(CCCCCNC(=O)/C=C/c3ccc(Cl)c(Cl)c3)CC2)cc1C`, the XC50 was 733 nM.

`O=C(NC1CCC(CN2CCC(c3c[nH]c4ccccc34)CC2)CC1)c1cc(-c2ccccc2Cl)oc1C(F)(F)F` (centres undefined) yielded an XC50 of 771 nM.

As for `COc1ccc2nccc(NC(=O)N3CCC(NCCOc4cc(F)cc(F)c4)CC3)c2n1`, the XC50 turned out to be 770 nM.

`O=C(/C=C/c1ccc(Cl)c(Cl)c1)NCCCCCN1CCC(CCNC(=O)/C=C/c2ccccc2F)CC1` had an XC50 of 871 nM.

`Nc1cccc(CNCc2cccc(-c3csc(-c4nc5ccccc5[nH]4)c3)c2)c1` displayed an XC50 of 685 nM.

In the case of `Cc1cccc2nc(-c3ccc(-c4ccc(CN5CCCCC5)cc4)cc3)[nH]c12`, the XC50 was determined as 589 nM.

Turning to `Cc1ccc(O)cc1Nc1c(C(N)=O)cnc2ccc(-c3cncs3)cc12`, the XC50 came to 670 nM.

For `COc1ccccc1CNC(=O)C(=O)Nc1c(-c2ccccc2)[nH]c2ccccc12`, the XC50 is 737 nM.

Compound `CC(C)C[C@H](NC(=O)c1cccc(F)c1)C(=O)N[C@H](/C=N/NC(=O)c1ccccc1)CCc1ccccc1` yielded an XC50 of 715 nM.

`Cn1nc(-c2ccc(CNC3CCc4ccccc43)cc2)c2cnc(NCCN3CCCC3)nc21` (centres undefined) registered an XC50 of 1350 nM.

As to `COc1cc2c(cc1C(F)(F)F)N(C(=O)Nc1cc(-c3ccncc3)cc(-c3cccnc3)c1)CC2`, the XC50 turned out to be 619 nM.

For `CCCc1cc(Cc2cnc(N)nc2N)ccc1OCCCCCC(=O)OCC`, the XC50 worked out at 495 nM.

As for `COc1c(Br)cc(Br)cc1-c1ccc(CN2CC3CCC2CC3)[nH]1`, the XC50 came out at 693 nM.

(Values after ChEMBL document CHEMBL1157539, “Thousands of chemical starting points for antimalarial lead identification” (Nature, 2010).)
